# Measured values reported in paper PMC11224111, “Optimizing the pharmacokinetics of an ^211At-labeled RGD peptide with an albumin-binding moiety via the administration of an albumin-binding inhibitor” (European Journal of Nuclear Medicine and Molecular Imaging, 2024).
# “And” between values parts separate entries of the source, which are not always exact repeats. Identical values can stand only once.
# System: U-87 MG tumor-bearing mice
# Assay: Biodistribution in U-87 MG tumor-bearing mice with IPBA
# Format: in vivo
# Conditions: IPBA 10 eq at 1 h postinjection
# Method: To prepare tumor-bearing mice, 5 × 10^6 of U-87 MG cells were subcutaneously inoculated into the right shoulder of 4-week-old female BALB/c nude mice (13–15 g, Japan SLC, Inc.) as previously reported. At approximately 10-day postinoculation of U-87 MG cells, they were used for each experiment after tumor size reached 0.3–0.5 cm^3.
# At 1-h postinjection of [^211At]1 (37 kBq) and [^125I]2 (37 kBq), IPBA (1.9 mg, 6.1 µmol) was administered at 10 molar equivalent of blood albumin. Mice were sacrificed at 65-, 70-min, 2-, 4-, 12-, and 24-h postinjection of [^211At]1 and [^125I]2. Tissues of interest were removed and weighed, and radioactivity counts of ^125I and ^211At were determined with an auto well gamma counter (ARC-7010; Hitachi Medical, Ltd., Tokyo, Japan) and corrected for background radiation. To determine the radioactivity excreted from the body for 24 h, mice were housed in metabolic cages (Metabolica, Sugiyama-Gen Co., Ltd., Tokyo, Japan).
substance,measurement,setting,value
Ga-DOTA-K([^211At]APBA)-c(RGDfK) [[^211At]1],"Radioactivity, Blood",65 min after administration,13.96 (0.18) % injected activity per gram
same,"Radioactivity, Bone",65 min after administration,4.07 (0.26) % injected activity per gram
same,"Radioactivity, Brain",65 min after administration,0.36 (0.00) % injected activity per gram
same,"Radioactivity, Heart",65 min after administration,5.28 (0.29) % injected activity per gram
same,"Radioactivity, Kidney",65 min after administration,16.15 (1.45) % injected activity per gram
same,"Radioactivity, L. intestine",65 min after administration,3.05 (0.10) % injected activity per gram
same,"Radioactivity, Liver",65 min after administration,5.20 (0.50) % injected activity per gram
same,"Radioactivity, Lung",65 min after administration,10.81 (0.60) % injected activity per gram
same,"Radioactivity, Muscle",65 min after administration,2.80 (0.39) % injected activity per gram
same,"Radioactivity, Neck",65 min after administration,0.04 (0.02) % injected activity
same,"Radioactivity, Pancreas",65 min after administration,2.82 (0.16) % injected activity per gram
same,"Radioactivity, S. intestine",65 min after administration,4.69 (0.26) % injected activity per gram
same,"Radioactivity, Spleen",65 min after administration,4.06 (0.21) % injected activity per gram
same,"Radioactivity, Stomach",65 min after administration,1.12 (0.28) % injected activity
same,"Radioactivity, Tumor",65 min after administration,10.92 (0.34) % injected activity per gram
same,"Radioactivity, Blood",70 min after administration,9.85 (0.55) % injected activity per gram
same,"Radioactivity, Bone",70 min after administration,2.22 (0.60) % injected activity per gram
same,"Radioactivity, Brain",70 min after administration,0.26 (0.02) % injected activity per gram
same,"Radioactivity, Heart",70 min after administration,3.66 (0.27) % injected activity per gram
same,"Radioactivity, Kidney",70 min after administration,11.02 (1.44) % injected activity per gram
same,"Radioactivity, L. intestine",70 min after administration,2.25 (0.27) % injected activity per gram
same,"Radioactivity, Liver",70 min after administration,3.72 (0.52) % injected activity per gram
same,"Radioactivity, Lung",70 min after administration,7.40 (0.85) % injected activity per gram
same,"Radioactivity, Muscle",70 min after administration,1.60 (0.16) % injected activity per gram
same,"Radioactivity, Neck",70 min after administration,0.05 (0.00) % injected activity
same,"Radioactivity, Pancreas",70 min after administration,1.95 (0.14) % injected activity per gram
same,"Radioactivity, S. intestine",70 min after administration,3.61 (0.36) % injected activity per gram
same,"Radioactivity, Spleen",70 min after administration,2.77 (0.39) % injected activity per gram
same,"Radioactivity, Stomach",70 min after administration,0.78 (0.17) % injected activity
same,"Radioactivity, Tumor",70 min after administration,10.79 (1.09) % injected activity per gram
same,"Radioactivity, Blood",2 h after administration,8.06 (0.39) % injected activity per gram
same,"Radioactivity, Bone",2 h after administration,3.04 (0.30) % injected activity per gram
same,"Radioactivity, Heart",2 h after administration,2.86 (0.31) % injected activity per gram
same,"Radioactivity, Kidney",2 h after administration,8.22 (0.51) % injected activity per gram
same,"Radioactivity, L. intestine",2 h after administration,2.35 (0.97) % injected activity per gram
same,"Radioactivity, Liver",2 h after administration,2.45 (0.21) % injected activity per gram
same,"Radioactivity, Lung",2 h after administration,5.67 (0.59) % injected activity per gram
same,"Radioactivity, Muscle",2 h after administration,1.96 (0.68) % injected activity per gram
same,"Radioactivity, Neck",2 h after administration,0.04 (0.02) % injected activity
same,"Radioactivity, Pancreas",2 h after administration,1.64 (0.14) % injected activity per gram
same,"Radioactivity, S. intestine",2 h after administration,2.42 (0.70) % injected activity per gram
same,"Radioactivity, Spleen",2 h after administration,2.34 (0.18) % injected activity per gram
same,"Radioactivity, Stomach",2 h after administration,0.81 (0.05) % injected activity
same,"Radioactivity, Tumor",2 h after administration,13.38 (1.48) % injected activity per gram
same,"Radioactivity, Blood",4 h after administration,3.04 (0.26) % injected activity per gram
same,"Radioactivity, Bone",4 h after administration,1.60 (0.14) % injected activity per gram
same,"Radioactivity, Brain",4 h after administration,0.18 (0.02) % injected activity per gram
same,"Radioactivity, Heart",4 h after administration,1.44 (0.10) % injected activity per gram
same,"Radioactivity, Kidney",4 h after administration,5.32 (0.35) % injected activity per gram
same,"Radioactivity, L. intestine",4 h after administration,4.03 (1.33) % injected activity per gram
same,"Radioactivity, Liver",4 h after administration,1.34 (0.05) % injected activity per gram
same,"Radioactivity, Lung",4 h after administration,3.34 (0.11) % injected activity per gram
same,"Radioactivity, Muscle",4 h after administration,0.61 (0.01) % injected activity per gram
same,"Radioactivity, Neck",4 h after administration,0.02 (0.00) % injected activity
same,"Radioactivity, Pancreas",4 h after administration,0.93 (0.26) % injected activity per gram
same,"Radioactivity, S. intestine",4 h after administration,3.03 (0.65) % injected activity per gram
same,"Radioactivity, Spleen",4 h after administration,2.18 (0.13) % injected activity per gram
same,"Radioactivity, Stomach",4 h after administration,0.75 (0.01) % injected activity
same,"Radioactivity, Tumor",4 h after administration,12.48 (0.95) % injected activity per gram
same,"Radioactivity, Blood",12 h after administration,2.71 (0.21) % injected activity per gram
same,"Radioactivity, Bone",12 h after administration,1.10 (0.24) % injected activity per gram
same,"Radioactivity, Brain",12 h after administration,0.12 (0.01) % injected activity per gram
same,"Radioactivity, Heart",12 h after administration,1.49 (0.11) % injected activity per gram
same,"Radioactivity, Kidney",12 h after administration,3.12 (0.14) % injected activity per gram
same,"Radioactivity, L. intestine",12 h after administration,0.89 (0.06) % injected activity per gram
same,"Radioactivity, Liver",12 h after administration,1.04 (0.12) % injected activity per gram
same,"Radioactivity, Lung",12 h after administration,3.50 (0.28) % injected activity per gram
same,"Radioactivity, Muscle",12 h after administration,0.54 (0.02) % injected activity per gram
same,"Radioactivity, Neck",12 h after administration,0.09 (0.03) % injected activity
same,"Radioactivity, Pancreas",12 h after administration,0.92 (0.08) % injected activity per gram
same,"Radioactivity, S. intestine",12 h after administration,1.01 (0.14) % injected activity per gram
same,"Radioactivity, Spleen",12 h after administration,1.41 (0.12) % injected activity per gram
same,"Radioactivity, Stomach",12 h after administration,0.72 (0.09) % injected activity
same,"Radioactivity, Tumor",12 h after administration,7.73 (0.76) % injected activity per gram
same,"Radioactivity, Blood",24 h after administration,2.21 (0.38) % injected activity per gram
same,"Radioactivity, Bone",24 h after administration,0.64 (0.16) % injected activity per gram
same,"Radioactivity, Brain",24 h after administration,0.26 (0.31) % injected activity per gram
same,"Radioactivity, Heart",24 h after administration,0.90 (0.31) % injected activity per gram
same,"Radioactivity, Kidney",24 h after administration,1.91 (0.38) % injected activity per gram
same,"Radioactivity, L. intestine",24 h after administration,0.41 (0.24) % injected activity per gram
same,"Radioactivity, Liver",24 h after administration,0.73 (0.17) % injected activity per gram
same,"Radioactivity, Lung",24 h after administration,2.31 (0.34) % injected activity per gram
same,"Radioactivity, Muscle",24 h after administration,0.32 (0.07) % injected activity per gram
same,"Radioactivity, Neck",24 h after administration,0.04 (0.01) % injected activity
same,"Radioactivity, Pancreas",24 h after administration,0.41 (0.12) % injected activity per gram
same,"Radioactivity, S. intestine",24 h after administration,0.46 (0.22) % injected activity per gram
same,"Radioactivity, Spleen",24 h after administration,1.22 (0.27) % injected activity per gram
same,"Radioactivity, Stomach",24 h after administration,0.61 (0.18) % injected activity
same,"Radioactivity, Tumor",24 h after administration,6.15 ± 0.20 % injected activity per gram and 6.15 (0.20) % injected activity per gram
same,"Radioactivity excreted, Feces",until 24 h postinjection,4.09 ± 1.69 % injected activity and 4.09 (1.69) % injected activity
same,"Radioactivity excreted, Urine",until 24 h postinjection,38.98 ± 5.39 % injected activity and 38.98 (5.39) % injected activity
